# Experimental data from patent publication US20050267124A1, “Pharmaceutical compositions comprising NEP-inhibitors, inhibitors of the endogenous producing system and PDEV inhibiitors” (Solvay Pharmaceuticals GmbH, priority 2004, published 2005).
# How the values were obtained:
# Male Sprague-Dawley rats = test: Big-ET-induced hypertension following intravenous bolus administration in rats; format: in vivo, rat; settings: for Maximal Big-ET-induced increase in SAP: anaesthetised rats, i.v. bolus sildenafil 1 mg/kg and/or compound of Formula IV 10 μmol/kg, 0.5 nmol/kg Big-ET 8 min later, mean increase from baseline
# Protocol: 1. Big-ET-Induced Hypertension Following Intravenous Bolus Administration in Rats
# Male Sprague-Dawley rats (˜[…], fed a standard chow diet, fasted for 18 h prior to the experiments, with free access to drinking water) were anaesthetised with 1 ml/kg Rompun/Ketavet 1:1, and then transferred to servo-controlled, heated tables to maintain body temperature at 37° C. A pressure transducer (Statham) was connected to one carotid artery for measurement of arterial blood pressure. Both jugular veins were cannulated for compound and Big-ET-infusion (Big-ET=endogenous precursor of endothelin), respectively. After an equilibration period of 20 minutes (=min), the animals received either vehicle (10% arlatone G, 10% ethanol, 80% H2O), sildenafil (1 mg/kg), compound of Formula IV (10 μmol/kg), or a combination of sildenafil+compound of Formula IV intravenously (over 1 min in a total volume of 2 ml/kg body weight). 8 min later, 0.5 nmol/kg Big-ET was infused (over 1 min; Big-ET was from Bachem, Heidelberg). Systolic (SAP) and diastolic arterial blood pressures and heart rate were recorded every 5 min for the next 15 min.
# The maximal pressor and bradycardic effects were typically reached within 5 min following Big-ET administration.
# (§1) The results are expressed as mean±SEM of the maximal systolic blood pressure increase (from baseline) observed after the Big-ET challenge (n: number of animals). 2. Effect on Blood Pressure in Spontaneously Hypertensive Rats
# [1] = system: spontaneously hypertensive rats (SHR); test: Effect on blood pressure in spontaneously hypertensive rats (telemetry); format: in vivo, rat; settings: i.v. sildenafil 3 mg/kg, alone or with compound of Formula IV 10 μmol/kg, change vs. baseline averaged over last 15 min of 30 min after treatment
# Excerpt: as §1
# Male spontaneously hypertensive rats (=SHR, insulin resistant strain from Charles River; aged 6 months) were equipped with telemetry transmitters for continuous monitoring of blood pressure and heart rate. Telemetry transmitters for continuous monitoring of blood pressure, heart rate and locomotor activity (TA11PA-C40, Data Sciences, USA) were implanted intraabdominally under inhalative halothane anesthesia. A midline abdominal incision was made, and the abdominal aorta was visualized by removal of retroperitoneal fat and connective tissue. A ligature was placed caudal of the renal arteries, the aorta was punctured with a 22G needle, and the catheter was advanced into the aorta. The entry point was sealed with tissue adhesive (Vetbond®, 3M, USA), the ligature was removed, and the abdominal incision was closed. […]
# On the day of the experiments, blood pressure was first monitored for 30 min under baseline (untreated) conditions before a group of animals received sildenafil (3 mg/kg), and another one sildenafil (3 mg/kg) combined with compound of Formula IV (10 μmol/kg) via injection into the caudal vein. Blood pressure was then measured for another 30 min. […]
Structure (SMILES),"time for which the drop in blood pressure was stable (Male Sprague-Dawley rats; after i.v. sildenafil 1 mg/kg, until timepoint of Big-ET application)",Maximal Big-ET-induced increase in SAP (Male Sprague-Dawley rats),"drop in systolic blood pressure as compared to baseline (Male Sprague-Dawley rats; immediately after i.v. administration, before the Big-ET challenge, sildenafil 1 mg/kg, compound of Formula IV 10 μmol/kg)",Average change in systolic blood pressure [1],"effect on the hypotensive action of sildenafil (Male Sprague-Dawley rats; compound of Formula IV 10 μmol/kg i.v. with sildenafil 1 mg/kg, before Big-ET challenge)"
"CCCc1nn(C)c2c(=O)[nH]c(-c3cc(S(=O)(=O)N4CCN(C)CC4)ccc3OCC)nc12 [Sildenafil, sildenafil]",at least 8 min,42.6 mm Hg,15±3 mm Hg,−10.5 mm Hg,
"O=C(O)CN1C(=O)C(NC(=O)C2(CC(CCc3ccccc3)C(=O)O)CCCC2)CCc2ccccc21 (stereo not drawn) [compound of Formula IV, 2-[1-(1-carboxymethyl-2-oxo-2,3,4,5-tetrahydro-1H-benzo[b]azepin-3-ylcarbamoyl)-cyclopentylmethyl]-4-phenyl-butyric acid]",,43.0 mm Hg,,,not reinforce the hypotensive action of sildenafil
